# Reference: PMC12406255, “Engineering Peptide Modulators for T‑Cell Migration by Structural Scaffold Matching” (Journal of Medicinal Chemistry, 2025)
# Positions of bridges follow the written chain, without caps; N, C: chain ends. Non-standard residues stand in square brackets, D forms with d. Residues, ends and D or L forms follow the SMILES beside them. Nle = CCCC[C@H](N)C(=O)O
# Tested on: CD8+ cells of MS patients
# Experiment: Transwell migration assay with PBMC of MS patients, CD8+ cells
# Format: cell-based, human
# Settings: PBMC of treatment-naive MS patients; too few cells to test significance
# Procedure: 5 Activity of the novel VhTI-pep 2 and pepitem on patient lymphocytes. PPBMCs were isolated from the blood of MS patients with a very recent disease flare receiving no immunosuppressive or immunomodulatory treatment in the past. The effect of the linear pepitem and VhTI-pep 2 was tested for the T-cell populations (A) CD3^+, (B) Th1, (C) CD4^+, (D) memory CD4^+, (E) CD8^+, and (F) memory CD8^+ cells. Data are shown as mean ± SD for 4 independent measurements. Statistical analysis was performed on the level of total counted cells using repeated measures one-way ANOVA with Dunnett’s post hoc test. Statistical significance is indicated as n.s. (not significant), * p < 0.05; ** p < 0.01; *** p < 0.001.
# Human microvascular endothelial cells (HMEC-1 cells, Cytion, Eppelheim, Germany) were cultured in MCDB-131 medium (with 2.2 g/L sodium bicarbonate, without L-glutamine, PAN-Biotech Aidenbach, Germany) supplemented with 10% fetal bovine serum (FBS, Capricorn Scientific, Ebsdorfergrund, Germany), 100 units/ml penicillin-streptomycin (Sigma-Aldrich) 10 ng/mL epidermal growth factor (BioLegend, San Diego, US), 1 μg/mL hydrocortisone (Sigma-Aldrich), and 10 mM L-glutamine (Sigma-Aldrich). For experiments, the cells were used between passage numbers 4–9. […]
structure (smiles),measurement,value
"CCCC[C@@H]1NC(=O)[C@H](C(C)C)NC(=O)[C@H](CCCCN)NC(=O)[C@@H](NC(=O)[C@H](CCC(N)=O)NC(=O)[C@H](CCC(=O)O)NC(C)=O)CSSC[C@@H](C(=O)N[C@@H](CCC(=O)O)C(=O)N[C@@H](CCCCN)C(N)=O)NC(=O)[C@H](CC(N)=O)NC(=O)[C@H](CC(=O)O)NC(=O)[C@H](CC(C)C)NC(=O)[C@@H]2CSSC[C@H](NC1=O)C(=O)N[C@@H](Cc1ccc(O)cc1)C(=O)N[C@@H](C)C(=O)N[C@@H](CCC(N)=O)C(=O)NCC(=O)N[C@@H](C)C(=O)N[C@@H](CCC(=O)O)C(=O)N[C@@H](CC(C)C)C(=O)N1CCC[C@H]1C(=O)N[C@@H](CCC(=O)O)C(=O)N[C@@H](CC(C)C)C(=O)N[C@@H](CC(C)C)C(=O)N[C@@H](CCCNC(=N)N)C(=O)N[C@@H](CCCNC(=N)N)C(=O)N2 [VhTI-pep 2] (Ac-EQCKV[Nle]CYAQGAELPELLRRCLDNCEK-NH2; disulfide 3-25, 7-21)",migration of CD8+ cells of MS patients (in words),positive trend
